From PubChem BioAssay (NCI)
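Compound exposure: 48 hours, 5 concentrations, 96-well plates. GI50: concentration for 50% inhibition of growth. At the TGI there is no net growth.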

Columns and labels:
Experiment in all cases: NCI-60 cell line screen, 48 h
PC-3 prostate = tested on: PC-3 prostate
NCI-H522 lung = tested on: NCI-H522 lung
OVCAR-4 ovarian = tested on: OVCAR-4 ovarian
ACHN renal = tested on: ACHN renal
UO-31 renal = tested on: UO-31 renal
SF-268 CNS = tested on: SF-268 CNS
HCC-2998 colon = tested on: HCC-2998 colon
MDA-MB-231 breast = tested on: MDA-MB-231 breast
COLO 205 colon = tested on: COLO 205 colon
MCF7 breast = tested on: MCF7 breast
LOX IMVI melanoma = tested on: LOX IMVI melanoma
NCI-H23 lung = tested on: NCI-H23 lung
OVCAR-5 ovarian = tested on: OVCAR-5 ovarian
HCT-15 colon = tested on: HCT-15 colon
TK-10 renal = tested on: TK-10 renal
NCI-H226 lung = tested on: NCI-H226 lung
HL-60(TB) leukemia = tested on: HL-60(TB) leukemia
OVCAR-3 ovarian = tested on: OVCAR-3 ovarian
HT29 colon = tested on: HT29 colon
IGROV1 ovarian = tested on: IGROV1 ovarian
T-47D breast = tested on: T-47D breast
OVCAR-8 ovarian = tested on: OVCAR-8 ovarian
NCI-H460 lung = tested on: NCI-H460 lung
CAKI-1 renal = tested on: CAKI-1 renal
HOP-62 NSCLC = tested on: HOP-62 NSCLC
SNB-19 CNS = tested on: SNB-19 CNS
SN12C renal = tested on: SN12C renal
RPMI-8226 leukemia = tested on: RPMI-8226 leukemia
CCRF-CEM leukemia = tested on: CCRF-CEM leukemia
UACC-257 melanoma = tested on: UACC-257 melanoma
MALME-3M melanoma = tested on: MALME-3M melanoma
UACC-62 melanoma = tested on: UACC-62 melanoma
A549 NSCLC = tested on: A549 NSCLC
MOLT-4 leukemia = tested on: MOLT-4 leukemia
U251 CNS = tested on: U251 CNS
BT-549 breast = tested on: BT-549 breast
SR leukemia = tested on: SR leukemia
RXF 393 renal = tested on: RXF 393 renal
HCT-116 colon = tested on: HCT-116 colon
K-562 leukemia = tested on: K-562 leukemia
NCI/ADR-RES ovarian = tested on: NCI/ADR-RES ovarian
SW-620 colon = tested on: SW-620 colon
HS 578T breast = tested on: HS 578T breast
SK-OV-3 ovarian = tested on: SK-OV-3 ovarian
KM12 colon = tested on: KM12 colon
DU-145 prostate = tested on: DU-145 prostate
A498 renal = tested on: A498 renal
786-0 renal = tested on: 786-0 renal
SK-MEL-5 melanoma = tested on: SK-MEL-5 melanoma
SK-MEL-2 melanoma = tested on: SK-MEL-2 melanoma
HOP-92 NSCLC = tested on: HOP-92 NSCLC
EKVX NSCLC = tested on: EKVX NSCLC
SF-295 CNS = tested on: SF-295 CNS
SK-MEL-28 melanoma = tested on: SK-MEL-28 melanoma
SF-539 CNS = tested on: SF-539 CNS
MDA-MB-435 = tested on: MDA-MB-435
SNB-75 CNS = tested on: SNB-75 CNS
M14 melanoma = tested on: M14 melanoma

## CCN1C(=O)N(CC)C2C1NN=c1s/c(=C\c3ccccn3)c(=O)n12 (configuration not stated)
PC-3 prostate
  GI50: 1.79 µM
  TGI: > 100 µM
NCI-H522 lung
  GI50: 0.69 µM
  TGI: 10.2 µM
OVCAR-4 ovarian
  GI50: > 100 µM
  TGI: > 100 µM
ACHN renal
  GI50: 6.45 µM
  TGI: > 100 µM
UO-31 renal
  GI50: 2.51 µM
  TGI: > 100 µM
SF-268 CNS
  GI50: 88.5 µM
  TGI: > 100 µM
HCC-2998 colon
  GI50: 3.17 µM
  TGI: > 100 µM
MDA-MB-231 breast
  GI50: 4.05 µM
  TGI: > 100 µM
COLO 205 colon
  GI50: 1.16 µM
  TGI: 11.6 µM
MCF7 breast
  GI50: 0.468 µM
  TGI: > 100 µM
LOX IMVI melanoma
  GI50: 5.71 µM
  TGI: > 100 µM
NCI-H23 lung
  GI50: 3.82 µM
  TGI: > 100 µM
OVCAR-5 ovarian
  GI50: 4.61 µM
  TGI: > 100 µM
HCT-15 colon
  GI50: 0.558 µM
  TGI: > 100 µM
TK-10 renal
  GI50: 40.7 µM
  TGI: > 100 µM
NCI-H226 lung
  GI50: 3.07 µM
  TGI: > 100 µM
HL-60(TB) leukemia
  GI50: 0.487 µM
  TGI: 3.42 µM
OVCAR-3 ovarian
  GI50: 0.403 µM
  TGI: 2.2 µM
HT29 colon
  GI50: 0.681 µM
  TGI: > 100 µM
IGROV1 ovarian
  GI50: 2.02 µM
  TGI: > 100 µM
T-47D breast
  GI50: 4.84 µM
  TGI: > 100 µM
OVCAR-8 ovarian
  GI50: 3.98 µM
  TGI: > 100 µM
NCI-H460 lung
  GI50: 2.07 µM
  TGI: > 100 µM
CAKI-1 renal
  GI50: 0.752 µM
  TGI: > 100 µM
HOP-62 NSCLC
  GI50: 2.91 µM
  TGI: > 100 µM
SNB-19 CNS
  GI50: 3.04 µM
  TGI: > 100 µM
SN12C renal
  GI50: 5.29 µM
  TGI: > 100 µM
RPMI-8226 leukemia
  GI50: 1.71 µM
  TGI: > 100 µM
CCRF-CEM leukemia
  GI50: 1.53 µM
  TGI: > 100 µM
UACC-257 melanoma
  GI50: > 100 µM
  TGI: > 100 µM
MALME-3M melanoma
  GI50: 1.63 µM
  TGI: > 100 µM
UACC-62 melanoma
  GI50: 0.833 µM
  TGI: > 100 µM
A549 NSCLC
  GI50: 2.15 µM
  TGI: > 100 µM
MOLT-4 leukemia
  GI50: 1.57 µM
  TGI: > 100 µM
U251 CNS
  GI50: 2.96 µM
  TGI: > 100 µM
BT-549 breast
  GI50: 3.99 µM
  TGI: > 100 µM
SR leukemia
  GI50: 0.455 µM
  TGI: > 100 µM
RXF 393 renal
  GI50: 1.66 µM
  TGI: 5.86 µM
HCT-116 colon
  GI50: 0.825 µM
  TGI: > 100 µM
K-562 leukemia
  GI50: 0.446 µM
  TGI: > 100 µM
NCI/ADR-RES ovarian
  GI50: 0.977 µM
  TGI: > 100 µM
SW-620 colon
  GI50: 0.743 µM
  TGI: > 100 µM
HS 578T breast
  GI50: 2.76 µM
  TGI: > 100 µM
SK-OV-3 ovarian
  GI50: 3.92 µM
  TGI: > 100 µM
KM12 colon
  GI50: 1.29 µM
  TGI: > 100 µM
DU-145 prostate
  GI50: 2.4 µM
  TGI: > 100 µM
A498 renal
  GI50: 0.184 µM
  TGI: 2.74 µM
786-0 renal
  GI50: 4.7 µM
  TGI: > 100 µM
SK-MEL-5 melanoma
  GI50: 2.46 µM
  TGI: > 100 µM
SK-MEL-2 melanoma
  GI50: 2.64 µM
  TGI: > 100 µM
HOP-92 NSCLC
  GI50: 2.37 µM
  TGI: > 100 µM
EKVX NSCLC
  GI50: 4.45 µM
  TGI: > 100 µM
SF-295 CNS
  GI50: 2.72 µM
  TGI: > 100 µM
SK-MEL-28 melanoma
  GI50: 4.95 µM
  TGI: > 100 µM
SF-539 CNS
  GI50: 1.74 µM
  TGI: 7.9 µM

## O=C(Nc1ccc(Oc2cccc(F)c2)c(Cl)c1)c1cnccn1
NCI-H522 lung
  GI50: 1.19 µM
  TGI: > 50 µM
OVCAR-4 ovarian
  GI50: 36.6 µM
  TGI: > 50 µM
ACHN renal
  GI50: 3.3 µM
  TGI: > 50 µM
UO-31 renal
  GI50: 2.93 µM
  TGI: > 50 µM
MDA-MB-435
  GI50: 0.149 µM
  TGI: 0.683 µM
SF-268 CNS
  GI50: 7.81 µM
  TGI: > 50 µM
HCC-2998 colon
  GI50: 6.04 µM
  TGI: > 50 µM
MDA-MB-231 breast
  GI50: 3.28 µM
  TGI: > 50 µM
COLO 205 colon
  GI50: 0.789 µM
  TGI: > 50 µM
MCF7 breast
  GI50: 0.413 µM
  TGI: > 50 µM
LOX IMVI melanoma
  GI50: 1.69 µM
  TGI: > 50 µM
NCI-H23 lung
  GI50: 3 µM
  TGI: > 50 µM
OVCAR-5 ovarian
  GI50: 4.27 µM
  TGI: > 50 µM
HCT-15 colon
  GI50: 0.28 µM
  TGI: > 50 µM
TK-10 renal
  GI50: 3.75 µM
  TGI: > 50 µM
NCI-H226 lung
  GI50: 2.6 µM
  TGI: > 50 µM
HL-60(TB) leukemia
  GI50: 1.29 µM
  TGI: 3.72 µM
OVCAR-3 ovarian
  GI50: 1 µM
  TGI: 5.15 µM
HT29 colon
  GI50: 0.234 µM
  TGI: > 50 µM
IGROV1 ovarian
  GI50: 1.83 µM
  TGI: > 50 µM
T-47D breast
  GI50: 1.33 µM
  TGI: > 50 µM
OVCAR-8 ovarian
  GI50: 2.51 µM
  TGI: > 50 µM
NCI-H460 lung
  GI50: 1.79 µM
  TGI: > 50 µM
SNB-75 CNS
  GI50: 1.06 µM
  TGI: 4.22 µM
CAKI-1 renal
  GI50: 2.13 µM
  TGI: > 50 µM
HOP-62 NSCLC
  GI50: 0.973 µM
  TGI: > 50 µM
SNB-19 CNS
  GI50: 2.74 µM
  TGI: > 50 µM
SN12C renal
  GI50: 3.6 µM
  TGI: > 50 µM
RPMI-8226 leukemia
  GI50: 1.79 µM
  TGI: > 50 µM
CCRF-CEM leukemia
  GI50: 1.3 µM
  TGI: > 50 µM
UACC-257 melanoma
  GI50: 4.53 µM
  TGI: > 50 µM
MALME-3M melanoma
  GI50: 3.03 µM
  TGI: > 50 µM
UACC-62 melanoma
  GI50: 2.72 µM
  TGI: > 50 µM
A549 NSCLC
  GI50: 0.938 µM
  TGI: > 50 µM
MOLT-4 leukemia
  GI50: 1.85 µM
  TGI: > 50 µM
U251 CNS
  GI50: 1.51 µM
  TGI: > 50 µM
BT-549 breast
  GI50: 2.18 µM
  TGI: > 50 µM
SR leukemia
  GI50: 0.242 µM
  TGI: > 50 µM
M14 melanoma
  GI50: 0.78 µM
  TGI: > 50 µM
RXF 393 renal
  GI50: 1.23 µM
  TGI: 3.72 µM
HCT-116 colon
  GI50: 0.596 µM
  TGI: > 50 µM
K-562 leukemia
  GI50: 0.242 µM
  TGI: > 50 µM
SW-620 colon
  GI50: 0.366 µM
  TGI: > 50 µM
HS 578T breast
  GI50: 1.19 µM
  TGI: > 50 µM
SK-OV-3 ovarian
  GI50: 10.8 µM
  TGI: > 50 µM
KM12 colon
  GI50: 0.357 µM
  TGI: > 50 µM
DU-145 prostate
  GI50: 2 µM
  TGI: > 50 µM
A498 renal
  GI50: 3.77 µM
  TGI: 43.3 µM
786-0 renal
  GI50: 3.03 µM
  TGI: > 50 µM
SK-MEL-5 melanoma
  GI50: 1.79 µM
  TGI: > 50 µM
SK-MEL-2 melanoma
  GI50: 2.15 µM
  TGI: > 50 µM
HOP-92 NSCLC
  GI50: 1.44 µM
  TGI: > 50 µM
EKVX NSCLC
  GI50: 2.67 µM
  TGI: > 50 µM
SF-295 CNS
  GI50: 1.56 µM
  TGI: > 50 µM
SK-MEL-28 melanoma
  GI50: 28.6 µM
  TGI: > 50 µM
SF-539 CNS
  GI50: 1.35 µM
  TGI: > 50 µM
